Data as given in patent US11178873B2, “Cyclic N-carboxamide compounds useful as herbicides” (FMC CORPORATION, priority 2015, dated 2021).

Columns and labels:
Type in all cases: in vivo
rice (Oryza sativa) = experiment: Test B flooded paddy test, rice; settings: Flood, scale 0 to 100 (0 no effect, 100 complete control), 13 to 15 d
Summary of the method: (§1)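 Plants at the 2-leaf stage were flooded to 3 cm above soil, and test compounds were applied directly into the paddy water, which was held at that depth throughout. After 13 to 15 d in a greenhouse, injury was rated visually against untreated controls on a 0–100 scale (0 no effect, 100 complete control).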

corn (Zea mays) = experiment: Test A postemergence, corn; settings: 0 to 100 scale, 0 no effect, 100 complete control
Summary of the method: (§2)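 Preemergence treatment was a directed soil spray; postemergence plants were 2 to 10 cm tall at the one- to two-leaf stage. Compounds were formulated in solvent with surfactant and grown in loam/sand in the greenhouse. Injury was scored visually against untreated controls after ~10 d, on a 0 (no effect) to 100 (complete control) scale.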

[1] = system: pigweed (Amaranthus retroflexus); experiment: Test A preemergence, pigweed; settings: 0 to 100 scale, 0 no effect, 100 complete control
Summary of the method: as §2

kochia (Kochia scoparia) [2] = experiment: Test A postemergence, kochia; settings: 0 to 100 scale, 0 no effect, 100 complete control
Summary of the method: as §2

[3] = system: ryegrass, Italian (Italian ryegrass, Lolium multiflorum); experiment: Test A postemergence, ryegrass, Italian; settings: 0 to 100 scale, 0 no effect, 100 complete control
Summary of the method: as §2

[4] = system: blackgrass (Alopecurus myosuroides); experiment: Test A postemergence, blackgrass; settings: 0 to 100 scale, 0 no effect, 100 complete control
Summary of the method: as §2

[5] = system: ducksalad (Heteranthera limosa); experiment: Test B flooded paddy test, ducksalad; settings: Flood, scale 0 to 100 (0 no effect, 100 complete control), 13 to 15 d
Summary of the method: as §1

[6] = system: foxtail, giant (giant foxtail, Setaria faberii); experiment: Test A postemergence, foxtail, giant; settings: 0 to 100 scale, 0 no effect, 100 complete control
Summary of the method: as §2

[7] = system: barnyardgrass (Echinochloa crus-galli); experiment: Test A preemergence, barnyardgrass; settings: 0 to 100 scale, 0 no effect, 100 complete control
Summary of the method: as §2

[8] = system: ryegrass, Italian (Italian ryegrass, Lolium multiflorum); experiment: Test A preemergence, ryegrass, Italian; settings: 0 to 100 scale, 0 no effect, 100 complete control
Summary of the method: as §2

[9] = system: foxtail, giant (giant foxtail, Setaria faberii); experiment: Test A preemergence, foxtail, giant; settings: 0 to 100 scale, 0 no effect, 100 complete control
Summary of the method: as §2

[10] = system: galium (catchweed bedstraw, Galium aparine); experiment: Test A postemergence, galium; settings: 0 to 100 scale, 0 no effect, 100 complete control
Summary of the method: as §2

[11] = system: ragweed (common ragweed, Ambrosia elatior); experiment: Test A postemergence, ragweed; settings: 0 to 100 scale, 0 no effect, 100 complete control
Summary of the method: as §2

[12] = system: barnyardgrass (Echinochloa crus-galli); experiment: Test B flooded paddy test, barnyardgrass; settings: Flood, scale 0 to 100 (0 no effect, 100 complete control), 13 to 15 d
Summary of the method: as §1

kochia (Kochia scoparia) [13] = experiment: Test A preemergence, kochia; settings: 0 to 100 scale, 0 no effect, 100 complete control
Summary of the method: as §2

[14] = system: ragweed (common ragweed, Ambrosia elatior); experiment: Test A preemergence, ragweed; settings: 0 to 100 scale, 0 no effect, 100 complete control
Summary of the method: as §2

[15] = system: barnyardgrass (Echinochloa crus-galli); experiment: Test A postemergence, barnyardgrass; settings: 0 to 100 scale, 0 no effect, 100 complete control
Summary of the method: as §2

[16] = system: pigweed (Amaranthus retroflexus); experiment: Test A postemergence, pigweed; settings: 0 to 100 scale, 0 no effect, 100 complete control
Summary of the method: as §2

[17] = system: sedge, umbrella (small-flower umbrella sedge, Cyperus difformis); experiment: Test B flooded paddy test, sedge, umbrella; settings: Flood, scale 0 to 100 (0 no effect, 100 complete control), 13 to 15 d
Summary of the method: as §1

[18] = system: wheat (Triticum aestivum); experiment: Test A postemergence, wheat; settings: 0 to 100 scale, 0 no effect, 100 complete control
Summary of the method: as §2

For `O=C1NCC(c2ccccc2)N1C(=O)Nc1cccc(F)c1F` (stereo not drawn) [Compound 12, N-(2,3-difluorophenyl)-2-oxo-5-phenyl-1-imidazolidinecarboxamide], the “Plant response rating, Rice” value (rice (Oryza sativa); 1000 g ai/ha) was 0, the “Plant response rating, Corn” value (corn (Zea mays); 125 g ai/ha) was 0 and the “Plant response rating, Corn” value (corn (Zea mays); 500 g ai/ha) was 0. For the same compound, the “Plant response rating, Pigweed” value ([1]; 125 g ai/ha) was 0, the “Plant response rating, Pigweed” value ([1]; 500 g ai/ha) was 0 and the “Plant response rating, Kochia” value (kochia (Kochia scoparia) [2]; 125 g ai/ha) was 0. The “Plant response rating, Kochia” value (kochia (Kochia scoparia) [2]; 500 g ai/ha) was 0, the “Plant response rating, Ryegrass, Italian” value ([3]; 125 g ai/ha) was 0 and the “Plant response rating, Ryegrass, Italian” value ([3]; 500 g ai/ha) was 0. For the same compound, the “Plant response rating, Blackgrass” value ([4]; 125 g ai/ha) was 0, the “Plant response rating, Blackgrass” value ([4]; 500 g ai/ha) was 0 and the “Plant response rating, Ducksalad” value ([5]; 1000 g ai/ha) was 90. For the same compound, the “Plant response rating, Foxtail, Giant” value ([6]; 125 g ai/ha) was 80, the “Plant response rating, Foxtail, Giant” value ([6]; 500 g ai/ha) was 80 and the “Plant response rating, Barnyardgrass” value ([7]; 125 g ai/ha) was 20. For the same compound, the “Plant response rating, Barnyardgrass” value ([7]; 500 g ai/ha) was 50, the “Plant response rating, Ryegrass, Italian” value ([8]; 125 g ai/ha) was 0 and the “Plant response rating, Ryegrass, Italian” value ([8]; 500 g ai/ha) was 0. The “Plant response rating, Foxtail, Giant” value ([9]; 125 g ai/ha) was 60, the “Plant response rating, Foxtail, Giant” value ([9]; 500 g ai/ha) was 90 and the “Plant response rating, Galium” value ([10]; 125 g ai/ha) was 0. For the same compound, the “Plant response rating, Galium” value ([10]; 500 g ai/ha) was 0, the “Plant response rating, Ragweed” value ([11]; 125 g ai/ha) was 0 and the “Plant response rating, Ragweed” value ([11]; 500 g ai/ha) was 0. The “Plant response rating, Barnyardgrass” value ([12]; 1000 g ai/ha) was 0, the “Plant response rating, Kochia” value (kochia (Kochia scoparia) [13]; 125 g ai/ha) was 0 and the “Plant response rating, Kochia” value (kochia (Kochia scoparia) [13]; 500 g ai/ha) was 20. For the same compound, the “Plant response rating, Ragweed” value ([14]; 125 g ai/ha) was 0, the “Plant response rating, Ragweed” value ([14]; 500 g ai/ha) was 0 and the “Plant response rating, Barnyardgrass” value ([15]; 125 g ai/ha) was 60. The “Plant response rating, Barnyardgrass” value ([15]; 500 g ai/ha) was 90, the “Plant response rating, Pigweed” value ([16]; 125 g ai/ha) was 0 and the “Plant response rating, Pigweed” value ([16]; 500 g ai/ha) was 0. The “Plant response rating, Sedge, Umbrella” value ([17]; 1000 g ai/ha) was 0, the “Plant response rating, Wheat” value ([18]; 125 g ai/ha) was 0 and the “Plant response rating, Wheat” value ([18]; 500 g ai/ha) was 0.
For `CN1CC(c2ccc(C(F)(F)F)cc2)N(C(=O)Nc2ccccc2F)C1=O` (stereo not drawn) [Compound 13], the “Plant response rating, Rice” value (rice (Oryza sativa); 250 g ai/ha) was 0, the “Plant response rating, Corn” value (corn (Zea mays); 31 g ai/ha) was 0 and the “Plant response rating, Corn” value (corn (Zea mays); 125 g ai/ha) was 0. For the same compound, the “Plant response rating, Pigweed” value ([1]; 31 g ai/ha) was 0, the “Plant response rating, Pigweed” value ([1]; 125 g ai/ha) was 0 and the “Plant response rating, Kochia” value (kochia (Kochia scoparia) [2]; 31 g ai/ha) was 0. For the same compound, the “Plant response rating, Kochia” value (kochia (Kochia scoparia) [2]; 125 g ai/ha) was 0, the “Plant response rating, Ryegrass, Italian” value ([3]; 31 g ai/ha) was 0 and the “Plant response rating, Ryegrass, Italian” value ([3]; 125 g ai/ha) was 0. The “Plant response rating, Blackgrass” value ([4]; 31 g ai/ha) was 0, the “Plant response rating, Blackgrass” value ([4]; 125 g ai/ha) was 0 and the “Plant response rating, Ducksalad” value ([5]; 250 g ai/ha) was 70. For the same compound, the “Plant response rating, Foxtail, Giant” value ([6]; 31 g ai/ha) was 0, the “Plant response rating, Foxtail, Giant” value ([6]; 125 g ai/ha) was 0 and the “Plant response rating, Barnyardgrass” value ([7]; 31 g ai/ha) was 0. The “Plant response rating, Barnyardgrass” value ([7]; 125 g ai/ha) was 0, the “Plant response rating, Ryegrass, Italian” value ([8]; 31 g ai/ha) was 0 and the “Plant response rating, Ryegrass, Italian” value ([8]; 125 g ai/ha) was 0. For the same compound, the “Plant response rating, Foxtail, Giant” value ([9]; 31 g ai/ha) was 0, the “Plant response rating, Foxtail, Giant” value ([9]; 125 g ai/ha) was 0 and the “Plant response rating, Galium” value ([10]; 31 g ai/ha) was 0. For the same compound, the “Plant response rating, Galium” value ([10]; 125 g ai/ha) was 0, the “Plant response rating, Ragweed” value ([11]; 31 g ai/ha) was 0 and the “Plant response rating, Ragweed” value ([11]; 125 g ai/ha) was 0. The “Plant response rating, Barnyardgrass” value ([12]; 250 g ai/ha) was 10, the “Plant response rating, Kochia” value (kochia (Kochia scoparia) [13]; 31 g ai/ha) was 0 and the “Plant response rating, Kochia” value (kochia (Kochia scoparia) [13]; 125 g ai/ha) was 0. For the same compound, the “Plant response rating, Ragweed” value ([14]; 31 g ai/ha) was 0, the “Plant response rating, Ragweed” value ([14]; 125 g ai/ha) was 0 and the “Plant response rating, Barnyardgrass” value ([15]; 31 g ai/ha) was 0. The “Plant response rating, Barnyardgrass” value ([15]; 125 g ai/ha) was 0, the “Plant response rating, Pigweed” value ([16]; 31 g ai/ha) was 0 and the “Plant response rating, Pigweed” value ([16]; 125 g ai/ha) was 0. The “Plant response rating, Sedge, Umbrella” value ([17]; 250 g ai/ha) was 0, the “Plant response rating, Wheat” value ([18]; 31 g ai/ha) was 0 and the “Plant response rating, Wheat” value ([18]; 125 g ai/ha) was 0.
